Patent US20240336617A1, “Substituted Bimane Compounds and Methods of Use Thereof” (THE TRUSTEES OF THE UNIVERSITY OF PENNSYLVANIA, priority 2023, published 2024)

What was measured:
[1] = Fluorescence (emission) measurements; type: physicochemical;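 further: fluorescence emission spectra recorded on a spectrofluorometer, with each compound excited at its own absorption maximum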
Method: The fluorescence spectrum of each derivative (150 μL) was measured on a Photon Technology International (PTI) QuantaMaster™ 40 fluorescence spectrometer by excitation at the maximum absorption wavelength for each compound.
The fluorescence spectrum of each derivative (150 μL) was measured on a Photon Technology International (PTJ) QuantaMaster™ 40 fluorescence spectrometer by excitation at the maximum absorption wavelength for each compound.

[2] = Molar absorptivity determination; type: physicochemical;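 further: molar absorptivity derived from UV-Vis absorbance spectra recorded for each derivative on a spectrometer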
Method: The absorbance spectrum of each derivative (150 μL) was measured on a Thermo Scientific Genesys 150 UV-Vis spectrometer, using 50:50 ACN/PBS as a blank.
Molar absorptivity determination. […] The absorbance spectrum of each derivative (150 μL) was measured on a Thermo Scientific Genesys 150 UV-Vis spectrometer, using 50:50 ACN/PBS as a blank.

[3] = Fluorescent quantum yield (QY) measurements; type: physicochemical; details: for Fluorescence QY: ACN/PBS buffer (1:1 v/v); for Fluorescence quantum yield: in ACN
Method: For each QY measurement, the incident excitation light spectrum was collected with 1 mL of solvent. […] Using the JASCO Quantum Yield Software, the dye QY was calculated by dividing the dye fluorescence intensity by the difference in incident light intensity in the presence and absence of dye. The minimum excitation wavelength for a full excitation incident spectrum using this setup is 360 nm.
Fluorescent quantum yield (QY) measurements. For each QY measurement, the incident excitation light spectrum was collected with 1 mL of solvent. After measuring the incident light intensity, dye (3 and 5a-5k) was added to the solvent from a concentrated stock solution to a final concentration of […] and the new spectrum (fluorescence intensity and new incident light intensity) was collected. Using the JASCO Quantum Yield Software, the dye QY was calculated by dividing the dye fluorescence intensity by the difference in incident light intensity in the presence and absence of dye. The minimum excitation wavelength for a full excitation incident spectrum using this setup is 360 nm.

[4] = Absorbance measurements (UV-Vis); details: for Abs. λabs: 25 μM; for Absorbance Wavelength: ACN:PBS buffer (50:50 v/v)
Method: Samples were individually diluted to the final concentration of 25 μM (500 μL) using 50:50 acetonitrile in phosphate buffered saline (ACN/PBS). The absorbance spectrum of each derivative (150 μL) was measured on a Thermo Scientific Genesys 150 UV-Vis spectrometer, using 50:50 ACN/PBS as a blank.

[5] = Fluorescence lifetime measurements (TCSPC); type: physicochemical; details: for Fluorescence Lifetime: ACN/PBS buffer (1:1 v/v); for Lifetime: ACN/PBS buffer (50:50 v/v), excitation 340 nm
Method: Time correlated single photon counting (TCSPC) measurements of fluorescence lifetime decays for 100 μM solutions of dyes (6, 7c, 7e, 7f, and 7g) in ACN/PBS buffer (50:50 v/v) were collected with the PTI Quantamaster™ 40 using a pulsed LED with a maximum emission at 340 nm. Fluorescence emission was collected at the indicated wavelength for each dye with 20 nm slit widths. The instrument response function (IRF) was collected under identical conditions. Data analysis was performed with FluoFit software (PicoQuant GmbH; Berlin, Germany) using an exponential decay model.
Fluorescence lifetime measurements. Time correlated single photon counting (TCSPC) measurements of fluorescence lifetime decays for 100 μM solutions of dyes (3 and 5c-f) in ACN/PBS buffer (50:50 v/v) were collected with the PTI Quantamaster™ 40 using a pulsed LED with a maximum emission at 340 nm. Fluorescence emission was collected at the indicated wavelength for each dye with 20 nm slit widths. The instrument response function ([…]) was collected under identical conditions. Data analysis was performed with FluoFit software (PicoQuant GmbH; Berlin, Germany) using an exponential decay model. […] FIG. 64D Fluorescence spectra of 5i-5k. […] Fluorescence spectra were measured at their maximum absorption wavelength. FIGS. 66A-66K show representative QY acquisitions of 3 and 5a-f, 5h-k in ACN/PBS buffer (50:50). All had consistent excitation (360 nm) and spectral collection (350-800 nm) parameters. Final concentration of the probe is 500 μM. Black line indicates incident light and blue line indicates sample spectrum. […] All had consistent excitation (360 nm, slit width 10 nm) and spectral collection (350-800 nm) parameters. Final concentration of the probe is 500 µM. Black line indicates incident light and blue line indicates sample spectrum. FIG. 68: Effect of pH on absorption and emission of 5h and 5j. […] For pH screening of 5h and 5j, PBS buffer solutions were prepared, then adjusted the pH 2, 4, and 7 by adding 6 M hydrochloric acid, pH 9 and 11 by adding 5 M sodium hydroxide. Emission spectra were measured by the excitation wavelength 354 nm for 5h and 385 nm for 5j. […] Lifetime measurements with exponential fits shown at left and residuals after fitting shown at right.

[6] = 25 μM in ACN/PBS buffer (1:1 v/v), pH 7.4
[7] = ACN/PBS buffer (1:1 v/v), pH 7.4
[8] = in ACN, at maximum absorption wavelength

Cc1c(C)n2c(/C=C/c3nc4ccc(F)cc4s3)c(C)c(=O)n2c1=O [Compound 8b, (E)-3-(2-(6-fluorobenzo[d]thiazol-2-yl)vinyl)-2,5,6-trimethyl-1H,7H-pyrazolo[1,2-a]pyrazole-1,7-dione]
Stokes shift ([1]; ACN only): 192 nm | Stokes shift ([1]; ACN:PBS (50:50 v/v)): 185 nm | ε ([2]; ACN only): 32612 M⁻¹ cm⁻¹ | ε ([2]; ACN:PBS (50:50 v/v)): 31088 M⁻¹ cm⁻¹ | Q.Y. ([3]; ACN only): 0.56% | Q.Y. ([3]; ACN:PBS (50:50 v/v)): 0.21% | Abs. λabs ([4]; ACN only): 340 nm | Abs. λabs ([4]; ACN:PBS (50:50 v/v)): 345 nm

Cc1c(C)n2c(/C=C/c3ccc(NC(=O)OC(C)(C)C)cc3)c(C)c(=O)n2c1=O [Compound 7i, tert-butyl (E)-(4-(2-(2,5,6-trimethyl-1,7-dioxo-1H,7H-pyrazolo[1,2-a]pyrazol-3-yl)vinyl)phenyl)carbamate]
Emission λmax [1, 6]: 505 nm | maximum emission wavelength (λem) ([1]; 50:50 ACN/PBS, excitation at λabs): 583 nm | Stokes shift ([1]; ACN/PBS buffer (1:1 v/v)): 149 nm | Stokes shift ([1]; in ACN): 142 nm | Molar Absorptivity (ε) [2, 7]: 34826 M⁻¹ cm⁻¹ | Molar Absorptivity (ε) [2, 8]: 37555 M⁻¹ cm⁻¹ | Fluorescence QY [3]: 3.4% | Fluorescence quantum yield [3]: 3.4% | Fluorescence quantum yield ([3]; Table S12): 3.4% | Absorbance λmax ([4]; 25 μM in ACN): 348 nm | Absorbance λmax [4, 6]: 356 nm | Absorbance Wavelength ([4]; Table 11): 354 nm

Cc1c(C)n2c(/C=C/c3nc4ccc([N+](=O)[O-])cc4s3)c(C)c(=O)n2c1=O [Compound 8a, (E)-2,3,6-trimethyl-5-(2-(6-nitrobenzo[d]thiazol-2-yl)vinyl)-1H,7H-pyrazolo[1,2-a]pyrazole-1,7-dione]
Stokes shift ([1]; ACN only): 229 nm | Stokes shift ([1]; ACN:PBS (50:50 v/v)): 99 nm | Em. λem ([1]; ACN:PBS (50:50 v/v), 25 μM): 448 nm | ε ([2]; ACN only): 26667 M⁻¹ cm⁻¹ | ε ([2]; ACN:PBS (50:50 v/v)): 27587 M⁻¹ cm⁻¹ | Q.Y. ([3]; ACN only): 0.1% | Q.Y. ([3]; ACN:PBS (50:50 v/v)): 0.06% | Abs. λabs ([4]; ACN only): 346 nm | Abs. λabs ([4]; ACN:PBS (50:50 v/v)): 349 nm

Cc1c(C)n2c(/C=C/c3ccc(N=[N+]=[N-])cc3)c(C)c(=O)n2c1=O [Compound 7d, (E)-3-(4-azidostyryl)-2,5,6-trimethyl-1H,7H-pyrazolo[1,2-a]pyrazole-1,7-dione]
Emission λmax [1, 6]: 502 nm | Stokes shift ([1]; ACN/PBS buffer (1:1 v/v)): 152 nm | Stokes shift ([1]; in ACN): 101 nm | Molar Absorptivity (ε) [2, 7]: 27699 M⁻¹ cm⁻¹ | Molar Absorptivity (ε) [2, 8]: 36055 M⁻¹ cm⁻¹ | Fluorescence QY [3]: 1.3% | Fluorescence quantum yield [3]: 1.5% | Absorbance λmax ([4]; 25 μM in ACN): 339 nm | Absorbance λmax [4, 6]: 350 nm

Cc1c(C)n2c(/C=C/c3ccc([N+](=O)[O-])cc3)c(C)c(=O)n2c1=O [Compound 7a, (E)-2,3,6-trimethyl-5-(4-nitrostyryl)-1H,7H-pyrazolo[1,2-a]pyrazole-1,7-dione]
Emission λmax ([1]; 25 μM in ACN): 432 nm | Emission λmax [1, 6]: 468 nm | Emission λem ([1]; 25 μM in ACN, Table S12): 432 nm | Stokes shift ([1]; ACN/PBS buffer (1:1 v/v)): 133 nm | Stokes shift ([1]; in ACN): 100 nm | Molar Absorptivity (ε) [2, 7]: 36955 M⁻¹ cm⁻¹ | Molar Absorptivity (ε) [2, 8]: 37871 M⁻¹ cm⁻¹ | Fluorescence QY [3]: 0.1% | Fluorescence quantum yield [3]: 0.2% | fluorescence quantum yield (QY) ([3]; in ACN/PBS): essentially non-fluorescent | Fluorescence quantum yield ([3]; Table S12): 0.2% | Absorbance λmax ([4]; 25 μM in ACN): 332 nm | Absorbance λmax [4, 6]: 335 nm | λabs ([4]; ACN/PBS): 335 nm | Absorbance Wavelength ([4]; Table 11): 335 nm | Absorbance Wavelength ([4]; Table S14): 335 nm

Cc1ccc(/C=C/c2c(C)c(=O)n3c(=O)c(C)c(C)n23)cc1 [Compound 7f, (E)-2,3,6-trimethyl-5-(4-methylstyryl)-1H,7H-pyrazolo[1,2-a]pyrazole-1,7-dione]
Emission λmax [1, 6]: 503 nm | Stokes shift ([1]; ACN/PBS buffer (1:1 v/v)): 171 nm | Stokes shift ([1]; in ACN): 165 nm | Molar Absorptivity (ε) [2, 7]: 21164 M⁻¹ cm⁻¹ | Molar Absorptivity (ε) [2, 8]: 24426 M⁻¹ cm⁻¹ | Fluorescence QY [3]: 3.0% | Fluorescence quantum yield [3]: 3.4% | Fluorescence quantum yield ([3]; Table S12): 3.4% | Absorbance λmax ([4]; 25 μM in ACN): 325 nm | Absorbance λmax [4, 6]: 332 nm | Absorbance Wavelength ([4]; Table 11): 332 nm | Absorbance Wavelength ([4]; Table S14): 332 nm | Fluorescence Lifetime [5]: 1.28 ns | Lifetime ([5]; Table 4): 1.28 ± 0.004 ns | Lifetime ([5]; Table S13): 1.28 ± 0.004 ns

Cc1c(C)n2c(/C=C/c3ccc(F)cc3)c(C)c(=O)n2c1=O [Compound 7c, (E)-3-(4-fluorostyryl)-2,5,6-trimethyl-1H,7H-pyrazolo[1,2-a]pyrazole-1,7-dione]
Emission λmax [1, 6]: 502 nm | Stokes shift ([1]; ACN/PBS buffer (1:1 v/v)): 181 nm | Stokes shift ([1]; in ACN): 177 nm | Molar Absorptivity (ε) [2, 7]: 23796 M⁻¹ cm⁻¹ | Molar Absorptivity (ε) [2, 8]: 28940 M⁻¹ cm⁻¹ | Fluorescence QY [3]: 2.5% | Fluorescence quantum yield [3]: 2.8% | Fluorescence quantum yield ([3]; Table S12): 2.8% | Absorbance λmax ([4]; 25 μM in ACN): 315 nm | Absorbance λmax [4, 6]: 321 nm | Absorbance Wavelength ([4]; Table 11): 321 nm | Absorbance Wavelength ([4]; Table S14): 321 nm | Fluorescence Lifetime [5]: 1.07 ns | Lifetime ([5]; Table 4): 1.07 ± 0.003 ns | Lifetime ([5]; Table S13): 1.07 ± 0.003 ns

COc1ccc(/C=C/c2c(C)c(=O)n3c(=O)c(C)c(C)n23)cc1 [Compound 7g, (E)-3-(4-methoxystyryl)-2,5,6-trimethyl-1H,7H-pyrazolo[1,2-a]pyrazole-1,7-dione]
Emission λmax [1, 6]: 504 nm | Stokes shift ([1]; ACN/PBS buffer (1:1 v/v)): 156 nm | Stokes shift ([1]; in ACN): 146 nm | Molar Absorptivity (ε) [2, 7]: 25659 M⁻¹ cm⁻¹ | Molar Absorptivity (ε) [2, 8]: 34554 M⁻¹ cm⁻¹ | Fluorescence QY [3]: 3.3% | Fluorescence quantum yield [3]: 3.5% | Fluorescence quantum yield ([3]; Table S12): 3.5% | Absorbance λmax ([4]; 25 μM in ACN): 342 nm | Absorbance λmax [4, 6]: 348 nm | Absorbance Wavelength ([4]; Table S14): 348 nm | Fluorescence Lifetime [5]: 1.31 ns | Lifetime ([5]; Table 4): 1.31 ± 0.004 ns | Lifetime ([5]; Table S13): 1.31 ± 0.004 ns

COc1ccc2nc(/C=C/c3c(C)c(=O)n4c(=O)c(C)c(C)n34)sc2c1 [Compound 8d, (E)-3-(2-(6-methoxybenzo[d]thiazol-2-yl)vinyl)-2,5,6-trimethyl-1H,7H-pyrazolo[1,2-a]pyrazole-1,7-dione]
Stokes shift ([1]; ACN only): 163 nm | Stokes shift ([1]; ACN:PBS (50:50 v/v)): 157 nm | ε ([2]; ACN only): 22961 M⁻¹ cm⁻¹ | ε ([2]; ACN:PBS (50:50 v/v)): 22575 M⁻¹ cm⁻¹ | Q.Y. ([3]; ACN only): 0.54% | Q.Y. ([3]; ACN:PBS (50:50 v/v)): 0.27% | Abs. λabs ([4]; ACN only): 367 nm | Abs. λabs ([4]; ACN:PBS (50:50 v/v)): 373 nm

Cc1c(C)n2c(/C=C/c3nc4ccccc4s3)c(C)c(=O)n2c1=O [Compound 8c, (E)-3-(2-(benzo[d]thiazol-2-yl)vinyl)-2,5,6-trimethyl-1H,7H-pyrazolo[1,2-a]pyrazole-1,7-dione]
Stokes shift ([1]; ACN only): 195 nm | Stokes shift ([1]; ACN:PBS (50:50 v/v)): 192 nm | ε ([2]; ACN only): 29974 M⁻¹ cm⁻¹ | ε ([2]; ACN:PBS (50:50 v/v)): 29304 M⁻¹ cm⁻¹ | Q.Y. ([3]; ACN only): 0.4% | Q.Y. ([3]; ACN:PBS (50:50 v/v)): 0.16% | Abs. λabs ([4]; ACN only): 339 nm | Abs. λabs ([4]; ACN:PBS (50:50 v/v)): 344 nm

Cc1c(C)n2c(/C=C/c3nc4ccc(O)cc4s3)c(C)c(=O)n2c1=O [Compound 8e, (E)-3-(2-(6-hydroxybenzo[d]thiazol-2-yl)vinyl)-2,5,6-trimethyl-1H,7H-pyrazolo[1,2-a]pyrazole-1,7-dione]
Stokes shift ([1]; ACN only): 162 nm | Stokes shift ([1]; ACN:PBS (50:50 v/v)): 159 nm | ε ([2]; ACN only): 21094 M⁻¹ cm⁻¹ | ε ([2]; ACN:PBS (50:50 v/v)): 20460 M⁻¹ cm⁻¹ | Q.Y. ([3]; ACN only): 0.52% | Q.Y. ([3]; ACN:PBS (50:50 v/v)): 0.26% | Abs. λabs ([4]; ACN only): 369 nm | Abs. λabs ([4]; ACN:PBS (50:50 v/v)): 375 nm
